pKi: −log10 of the molar value.
How the values were obtained:
gastrin (CCK2) receptor = molecular target: T1, gastrin (CCK2) receptor (Rattus norvegicus, UniProt P30553); assay: gastrin (CCK2) antagonist activity in an immature rat stomach assay (pentagastrin-stimulated acid secretion); details: isolated immature rat stomach, 60 min incubation, cumulative pentagastrin dose-response curves; read-out: CCK2 pKB ± sem (converted)
T1 construct: The oesophagus of immature rats (33-50 g, ca. 21 days old) was ligated; from tissue; host or cells: isolated whole stomach of immature rats
T1 sequence (P30553 1-452): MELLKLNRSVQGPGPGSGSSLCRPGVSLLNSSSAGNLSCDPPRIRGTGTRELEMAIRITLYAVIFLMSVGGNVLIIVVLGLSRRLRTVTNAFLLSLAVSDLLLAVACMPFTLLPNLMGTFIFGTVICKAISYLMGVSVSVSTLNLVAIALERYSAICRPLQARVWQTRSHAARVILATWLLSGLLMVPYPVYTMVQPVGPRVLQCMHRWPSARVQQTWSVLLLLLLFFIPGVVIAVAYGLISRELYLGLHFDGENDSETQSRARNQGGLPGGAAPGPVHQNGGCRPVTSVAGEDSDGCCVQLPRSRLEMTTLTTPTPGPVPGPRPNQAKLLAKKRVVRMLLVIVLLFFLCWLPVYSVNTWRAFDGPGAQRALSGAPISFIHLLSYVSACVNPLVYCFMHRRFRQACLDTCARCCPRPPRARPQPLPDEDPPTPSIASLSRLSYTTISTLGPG

human CCK1-receptor = molecular target: T2, human CCK1-receptor (Homo sapiens, UniProt P32238); assay: CCK1 radioligand binding, displacement of [3H]-L-364,718 in CHO-K1 cells; details: displacement of [3H]-L-364,718, CHO-K1 cells with cloned human CCK1 receptor; S.E.M's on pKi are ±≦0.1
T2 construct: expressed in transfected cells; host or cells: CHO-K1
T2 sequence (P32238 1-428): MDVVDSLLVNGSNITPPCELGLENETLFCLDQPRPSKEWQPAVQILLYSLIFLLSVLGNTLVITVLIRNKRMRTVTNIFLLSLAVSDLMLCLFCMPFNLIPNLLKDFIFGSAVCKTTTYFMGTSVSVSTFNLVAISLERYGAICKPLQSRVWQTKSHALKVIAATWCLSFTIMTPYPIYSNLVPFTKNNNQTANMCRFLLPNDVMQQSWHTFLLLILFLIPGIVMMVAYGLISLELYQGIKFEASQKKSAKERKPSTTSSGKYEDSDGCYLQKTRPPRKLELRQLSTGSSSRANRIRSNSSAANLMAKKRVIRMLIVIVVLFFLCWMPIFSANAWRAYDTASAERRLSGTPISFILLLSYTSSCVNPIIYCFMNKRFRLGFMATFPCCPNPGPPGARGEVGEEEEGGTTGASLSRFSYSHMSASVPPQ
Experimental: The CCK1 activity of the ligands was assessed in a radioligand binding study, looking at the displacement of [^3H]-L-364,718 from sites in CHO-K1 cells into which the human CCK1-receptor sequence has been cloned. S.E.M's on pKi are ±≦0.1

| SMILES | Kb (gastrin (CCK2) receptor) [nM] | pKi (human CCK1-receptor) |
| --- | --- | --- |
| CC(C)(C)C(=O)CN1C(=O)N(CC(=O)Nc2cccc(SCC(=O)O)c2)C(=O)N(C2CCCCCC2)c2ccccc21 [Example 11, (3-{2-[1-Cycloheptyl-5-(3,3-dimethyl-2-oxo-butyl)-2,4-dioxo-1,2,4,5-tetrahydro-1,3,5-benzotriazepin-3-yl]-acetylamino}-phenylsulfanyl)-acetic acid] | 4.47 | 6.60 |
| CC(C)(C)C(=O)CN1C(=O)N(CC(=O)Nc2cccc(-c3nc(=O)o[nH]3)c2)C(=O)N(C2CCCCCC2)c2ccccc21 [Example 12, 2-[1-Cycloheptyl-5-(3,3-dimethyl-2-oxo-butyl)-2,4-dioxo-1,2,4,5-tetrahydro-1,3,5-benzotriazepin-3-yl]-N-[3-(5-oxo-2,5-dihydro-[1,2,4]-oxadiazol-3-yl)-phenyl]-acetamide] | 3.24 | 6.90 |
| CC(C)(C)C(=O)CN1C(=O)N(CC(=O)Nc2cccc(CCC(=O)O)c2)C(=O)N(C2CCCCC2)c2ccccc21 [Example 14, 3-(3-{2-[1-Cyclohexyl-5-(3,3-dimethyl-2-oxo-butyl)-2,4-dioxo-1,2,4,5-tetrahydro-1,3,5-benzotriazepin-3-yl]-acetylamino}-phenyl)-propionic acid] | 26.3 | 5.60 |
| CC(C)(C)C(=O)CN1C(=O)N(CC(=O)Nc2cccc(SCC(=O)OCc3ccccc3)c2)C(=O)N(C2CCCCCC2)c2ccccc21 [Example 10] | 6.76 | 7.00 |
| O=C(CN1C(=O)N(CC(=O)N2CCCC2)c2ccccc2N(c2ccccc2)C1=O)Nc1cccc(C(=O)O)c1 [Example 3, 3-{2-[2,4-Dioxo-1-(2-oxo-2-pyrrolidin-1-yl-ethyl)-5-phenyl-1,2,4,5-tetrahydro-1,3,5-benzotriazepin-3-yl]-acetylamino}-benzoic acid] | 708 | < 5.00 |
| CN(c1cccc(NC(=O)CN2C(=O)N(CC(=O)C(C)(C)C)c3ccccc3N(C3CCCCC3)C2=O)c1)c1nn[nH]n1 [Example 16, 2-[1-Cyclohexyl-5-(3,3-dimethyl-2-oxo-butyl)-2,4-dioxo-1,2,4,5-tetrahydro-1,3,5-benzotriazepin-3-yl]-N-{3-[methyl-(2H-tetrazol-5-yl)-amino]-phenyl}-acetamide] | – | 5.70 |
| CC(C)(C)C(=O)CN1C(=O)N(CCCC(=O)Nc2cccc(-c3nc(=O)o[nH]3)c2)C(=O)N(C2CCCCC2)c2ccccc21 [Example 19, 4-[1-Cyclohexyl-5-(3,3-dimethyl-2-oxo-butyl)-2,4-dioxo-1,2,4,5-tetrahydro-1,3,5-benzotriazepin-3-yl]-N-[3-(5-oxo-2,5-dihydro-[1,2,4]oxadiazol-3-yl)-phenyl]-butyramide] | 87.1 | – |

Now from value to compound:

| Kb (gastrin (CCK2) receptor) [nM] | pKi (human CCK1-receptor) | SMILES |
| --- | --- | --- |
| 43.7 | 5.40 | CC(C)(C)C(=O)CN1C(=O)N(CC(=O)Nc2cccc(CC(=O)O)c2)C(=O)N(C2CCCCCC2)c2ccccc21 [Example 8, (3-{2-[1-Cycloheptyl-5-(3,3-dimethyl-2-oxo-butyl)-2,4-dioxo-1,2,4,5-tetrahydro-1,3,5-benzotriazepin-3-yl]-acetylamino}-phenyl)-acetic acid] |
| 19.5 | 5.60 | CNc1cccc(NC(=O)CN2C(=O)N(CC(=O)C(C)(C)C)c3ccccc3N(C3CCCCC3)C2=O)c1 [Example 13, 2-[1-Cyclohexyl-5-(3,3-dimethyl-2-oxo-butyl)-2,4-dioxo-1,2,4,5-tetrahydro-1,3,5-benzotriazepin-3-yl]-N-(3-methylamino-phenyl)-acetamide] |
| 2240 | 5.10 | O=C(CN1C(=O)N(CC(=O)N2CCCC2)c2ccccc2N(c2ccccc2)C1=O)Nc1ccc(F)cc1 [Example 2, 2-[2,4-Dioxo-1-(2-oxo-2-pyrrolidin-1-yl-ethyl)-5-phenyl-1,2,4,5-tetrahydro-1,3,5-benzotriazepin-3-yl]-N-(4-fluoro-phenyl)-acetamide] |
| – | 5.80 | Cc1nc(-c2cccc(NC(=O)CN3C(=O)N(CC(=O)C(C)(C)C)c4ccccc4N(C4CCCCC4)C3=O)c2)cs1 [Example 15, 2-[1-Cyclohexyl-5-(3,3-dimethyl-2-oxo-butyl)-2,4-dioxo-1,2,4,5-tetrahydro-1,3,5-benzotriazepin-3-yl]-N-[3-(2-methyl-thiazol-4-yl)-phenyl]-acetamide] |

Source: US20070082892A1, “Benzotriazepine derivatives and their use as gastrin and cholecystokinin receptor ligands” (James Black Foundation Limited, priority 2003, published 2007)
